Laboratory results reported in patent publication US3966731A, “2-Fluoromethyl-3-o-tolyl-6-amino-4(3H)-quinazolinone” (Tanabe Seiyaku Co., Ltd., priority 1973, dated 1976).

Columns and labels:
[1] = Hypnotic activity, loss of righting reflex (oral, mice); therapeutic index; assay type: in vivo; details: mouse, in vivo, mice, oral; for selectivity ratio: po; for TD50: loss of righting reflex for more than 20 seconds in 50 % of the mice, read-out: Side effect: Hypnotic activity HD50 (D)
Description: (§1) (D) :A drug was administered orally to mice. The hypnotic activity of the
(§2) drug was determined by the number of mice which lost righting reflex for
(§3) more than 20 seconds. HD50 of the drug was estimated as the dose
(§4) which was required to produce the losing of righting reflex in 50 % of th
(§5) Therapeutic index and Safety margin: Said index and margin were calculate

mice [2] = experiment: Muscle relaxing activity, rotating rod method (oral, mice); assay type: in vivo; details: Mus musculus, 0.5 h, 30 minutes after dosing, read-out: Muscle relaxing activity ED50 (C)
Description: (§6) (C) :Activity examined by the rotating rod method. A drug was administere
(§7) orally to mice. After 30 minutes of the dosing, the mice were placed for
(§8) minutes on rotating rods (3.5 cm in diameter, 14 rpm.). ED50 of the
(§9) drug was estimated from the number of mice which fell out of the rods

[3] = system: cardiazol-induced convulsive death in mice; experiment: Anti-cardiazol activity, protection from cardiazol-induced convulsive death; assay type: in vivo; details: for ED50: Mus musculus, oral, 125 mg of cardiazol s.c. 30 minutes after dosing, protection at 60 minutes
Description: (§10) The quinazolinone derivative [I] of the present invention has potent tranquilizing, anti-convulsive and analgesic activities. […] On the other hand, when examined under the same condition as above, 200 mg of Mefenamic acid[Chemical name: N-(2,3-xylyl)anthranilic acid] are required to produce 25 % decrease in said carageenin-induced edema.
Anti-cardiazol activity. A drug was administered orally to mice. After 30
minutes of the dosing, 125 mg of cardiazol were injected subcutaneously t
the mice. ED50 of the drug was estimated from the number of mice
which were protected from cardiazol-induced convulsive death 60 minutes
after injection of cardiazol.

[4] = Japanese patent application No. 81910/1971; cited from earlier work
mice [5] = experiment: Muscle relaxing activity, inclined plate method (oral, mice); assay type: in vivo; details: Mus musculus, 15, 30 and 45 minutes after dosing, read-out: Muscle relaxing activity ED50 (B)
Description: (§11) (B) :Activity examined by the inclined plate method. A drug was
(§12) administered orally to mice. After 15, 30 and 45 minutes of the dosing,
(§13) the mice were put on the center of a canvas (60 cm in length and 50 cm in
(§14) width) having been set up with an inclination of 60 degrees. ED50 of
(§15) the drug was estimated from the number of mice which slipped down from th
(§16) canvas within one minute.

[6] = system: acetic acid-induced writhings; experiment: Analgesic activity, acetic acid-writhing method; assay type: in vivo, mice; details: for ED50: Mus musculus, oral, mice, 1 % acetic acid i.p., 50 % reduction in writhings
Description: as §10
Analgesic activity. One % acetic acid solution was injected
intraperitoneally to mice at the dose of […] after oral
administration of a drug, and the number of writhings per mouse was
counted for 5 minutes starting at 10 minutes after injection of acetic
acid. ED50 of the drug was estimated as the dose which would produce
50 % reduction in acetic acid-induced writhings.

[7] = Acute toxicity (oral, mice, 72 hours); safety margin; assay type: in vivo; details: mouse, in vivo, mice, oral; for selectivity ratio: po; for LD50 at 72 h: died 72 hours after dosing, read-out: Side effect: Acute toxicity LD50 (E)
Description: (§17) (E) :A drug was administered orally to mice. The 50 % lethal dose
(§18) (LD50) of the drug was estimated from the number of mice which died
(§19) 72 hours after the dosing.
as §5

mice [8] = experiment: Muscle relaxing activity, traction method (oral, mice); assay type: in vivo; details: Mus musculus, 10, 20 and 30 minutes after dosing
Description: (§20) (A) :Activity examined by the traction method. A drug was administered
(§21) orally to mice. After 10, 20 and 30 minutes of the dosing, the mice were
(§22) suspended by the forepaws to a metallic wire of 1 mm in diameter.
(§23) ED50 of the drug was estimated from the number of mice which fell ou
(§24) of the wire within 10 seconds.

mice [9] = experiment: Hypnotic activity, loss of righting reflex (oral, mice); therapeutic index; assay type: in vivo; details: for hypnotic activity (side effect), in words: mouse, in vivo
Description: as §1, §2, §3, §4, §5

carageenin-induced edema = experiment: Anti-inflammatory activity, carageenin-induced edema; assay type: in vivo, rats
Description: as §10
Anti-inflammatory activity. A drug was administered orally to rats at the
dose of 30 mg/kg. To the control group was administered orally a
physiological saline solution. After one hour, one % carageenin solution
was injected subcutaneously to the rats through planta of hind legs at th
dose of 0.5 ml/rat. Then, the volume of the hind legs in the control and
medicated groups were measured at 3 hours after injection of carageenin,
and the preventive effect (%) of the drug against carageenin-induced edem
was calculated therefrom.

[10] = Tranquilizing activity (no method given); details: in vivo
mice [11] = experiment: Acute toxicity (oral, mice, 72 hours); safety margin; assay type: in vivo; details: vs 2-methyl-3-(o-tolyl)-6-amino-4(3H)-quinazolinone; ratio of muscle relaxing activity to acute toxicity
Description: as §17, §18, §19, §5

mice [12] = experiment: Central muscle relaxing activity (Table 1, traction, inclined plate and rotating rod methods together); details: mouse, in vivo
Description: as §20, §21, §22, §23, §24, §11, §12, §13, §14, §15, §16, §6, §7, §8, §9

[13] = Arzneimittel Forshung 21(1971), 238-243; U.S. Pat. No. 3317388; cited from earlier work
[14] = HD50 / ED50 inclined plate method, read-out: Therapeutic index D/B
[15] = HD50 / ED50 rotating rod method, read-out: Therapeutic index D/C
[16] = HD50 / ED50 traction method, read-out: Therapeutic index D/A
[17] = LD50 / ED50 inclined plate method, read-out: Safety margin E/B
[18] = LD50 / ED50 rotating rod method, read-out: Safety margin E/C
[19] = LD50 / ED50 traction method, read-out: Safety margin E/A

Cc1ccccc1-n1c(CF)nc2ccccc2c1=O [2-fluoromethyl-3-(o-tolyl)-4(3H)-quinazolinone]
selectivity ratio [1, 14]: 1.48
selectivity ratio [1, 15]: 1.29
selectivity ratio [1, 16]: 0.63
TD50 [1]: 87.3 mg/kg
ED50 (mice [2]): 67.5 mg/kg
ED50 ([3]; mice): 56.1 mg/kg
hypnotic use, in words (Inoue et al) [4]: useful as hypnotic agents
ED50 (mice [5]): 58.9 mg/kg
ED50 [6]: 42.1 mg/kg
selectivity ratio [7, 17]: 12.1
selectivity ratio [7, 18]: 10.5
selectivity ratio [7, 19]: 5.1
LD50 at 72 h [7]: 710 mg/kg
ED50 (mice [8]): 138 mg/kg

Cc1ccccc1-n1c(CF)nc2ccc([N+](=O)[O-])cc2c1=O [2-fluoromethyl-3-(o-tolyl)-6-nitro-4(3H)-quinazolinone]
TD50 [1]: > 100 mg/kg
ED50 (mice [2]): > 100 mg/kg
hypnotic use, in words (Inoue et al) [4]: useful as hypnotic agents
ED50 (mice [5]): > 100 mg/kg
ED50 (mice [8]): > 100 mg/kg

Cc1ccccc1-n1c(CF)nc2ccc(N)cc2c1=O [quinazolinone derivative [I], 2-fluoromethyl-3-(o-tolyl)-6-amino-4(3H)-quinazolinone]
selectivity ratio [1, 14]: 2.75
selectivity ratio [1, 15]: 2.37
selectivity ratio [1, 16]: 2.57
TD50 [1]: 53.1 mg/kg
hypnotic activity (side effect), in words (mice [9]): relatively less hypnotic activity
therapeutic index, times superior to Chlormezanone (mice [9]; vs Chlormezanone, ratio of muscle relaxing to hypnotic activity): about 2 times
therapeutic index, times superior to Mephenesin (mice [9]; vs Mephenesin, ratio of muscle relaxing to hypnotic activity): about 2 times
Anti-inflammatory activity: preventive effect (%) against carageenin-induced edema (carageenin-induced edema; oral, rats, 30 mg/kg, 3 hours after carageenin): 28%
anti-inflammatory activity, in words (carageenin-induced edema; rat, in vivo): potent anti-inflammatory activity
ED50 (mice [2]): 22.4 mg/kg
ED50 ([3]; mice): 15.7 mg/kg
anti-convulsive activity, in words ([3]; mouse, in vivo): potent
anti-cardiazol activity, times superior to 2-fluoromethyl-3-(o-tolyl)-4(3H)-quinazolinone ([3]; vs 2-fluoromethyl-3-(o-tolyl)-4(3H)-quinazolinone, mice): 3.6 times
anti-cardiazol activity, times superior to 2-methyl-3-(o-tolyl)-6-amino-4(3H)-quinazolinone ([3]; vs 2-methyl-3-(o-tolyl)-6-amino-4(3H)-quinazolinone, mice): 1.1 times
anti-cardiazol activity (ED50), times superior to Chlormezanone ([3]; vs Chlormezanone, mice): about 2 times
tranquilizing activity, in words [10]: potent
ED50 (mice [5]): 19.3 mg/kg
ED50 [6]: 11.8 mg/kg
analgesic activity (ED50) compared with Chlormezanone ([6]; acetic acid-writhing method, in words): apparently stronger than that of Chlormezanone
analgesic activity, in words ([6]; mouse, in vivo): potent
selectivity ratio [7, 17]: 27.4
selectivity ratio [7, 18]: 23.6
selectivity ratio [7, 19]: 25.5
LD50 at 72 h [7]: 528 mg/kg
safety margin, times superior to 2-methyl-3-(o-tolyl)-6-amino-4(3H)-quinazolinone (mice [11]): about 7 times
ED50 (mice [8]): 20.7 mg/kg

Cc1ccccc1-n1c(C)nc2ccc(N)cc2c1=O [2-methyl-3-(o-tolyl)-6-amino-4(3H)-quinazolinone]
TD50 [1]: 33.7 mg/kg
ED50 (mice [2]): 22.5 mg/kg
ED50 ([3]; mice): 16.9 mg/kg
muscle relaxing activity, in words (mice [12]): relatively strong muscle relaxing activity
ED50 (mice [5]): 22.5 mg/kg
ED50 [6]: 10 mg/kg
muscle relaxing activity, in words (Breuer et al) [13]: shows a muscle relaxing activity
ED50 (mice [8]): 24 mg/kg

CN1C(=O)CCS(=O)(=O)C1c1ccc(Cl)cc1 (stereo not drawn) [Chlormezanone, 2-(p-chlorophenyl)tetrahydro-3-methyl-4H-1,3-thiazin-4-one 1,1-dioxide]
selectivity ratio [1, 14]: 2.47
selectivity ratio [1, 15]: 1.74
selectivity ratio [1, 16]: 1.86
TD50 [1]: 386 mg/kg
hypnotic activity (side effect), in words (mice [9]): potent hypnotic activity
ED50 (mice [2]): 222 mg/kg
ED50 ([3]; mice): 28.8 mg/kg
ED50 (mice [5]): 156 mg/kg
ED50 [6]: 258 mg/kg
selectivity ratio [7, 17]: 8.6
selectivity ratio [7, 18]: 6.1
selectivity ratio [7, 19]: 6.5
LD50 at 72 h [7]: 1340 mg/kg
ED50 (mice [8]): 208 mg/kg

Cc1cccc(Nc2ccccc2C(=O)O)c1C [Mefenamic acid, N-(2,3-xylyl)anthranilic acid]
decrease in carageenin-induced edema (carageenin-induced edema; 200 mg of Mefenamic acid required, same condition (oral, rats)): 25%

Cc1ccccc1OCC(O)CO (stereo not drawn) [Mephenesin, 3-(o-tolyloxy)-1,2-propanediol]
selectivity ratio [1, 14]: 1.5
selectivity ratio [1, 15]: 1.66
selectivity ratio [1, 16]: 1.56
TD50 [1]: 824 mg/kg
hypnotic activity (side effect), in words (mice [9]): potent hypnotic activity
ED50 (mice [2]): 498 mg/kg
ED50 ([3]; mice): 600 mg/kg
ED50 (mice [5]): 551 mg/kg
selectivity ratio [7, 17]: 3.7
selectivity ratio [7, 18]: 4.1
selectivity ratio [7, 19]: 3.8
LD50 at 72 h [7]: 2020 mg/kg
ED50 (mice [8]): 527 mg/kg
